# Reference: patent publication US20230372375A1, “SGLT-2 INHIBITOR SARCOSINE CO-CRYSTAL, PREPARATION METHOD THEREFOR AND USE THEREOF” (Beijing Creatron Institute of Pharmaceutical Research Co. …, priority 2020, published 2023)
# Columns and labels:
# [1] = Influencing factors test (physical and chemical stability) of canagliflozin crystal forms, Test Example 2; format: physicochemical; parameters: Impurity RRT0.73 content / Impurity RRT0.93 content / Impurity RRT1.12 content / Impurity RRT1.17 content / Impurity RRT2.25 content / Impurity RRT2.28 content / Impurity RRT0.57 content / Impurity RRT0.67 content: unit not given here
# Experimental: The canagliflozin-sarcosine cocrystal and canagliflozin hemihydrate (original crystal form) were tested for influencing factors.
# [2] = 1 g cannot be dissolved in 10000 ml; cited from earlier work
# [3] = Directly exposed at 60° C. for 10 days
# [4] = Directly exposed at 5000 LX for 10 days
# [5] = Directly exposed at RH75% for 10 days
smiles,measurement,setting,value
Cc1ccc([C@@H]2O[C@H](CO)[C@@H](O)[C@H](O)[C@H]2O)cc1Cc1ccc(-c2ccc(F)cc2)s1.O [canagliflozin hemihydrate],Impurity RRT0.57 content,[1]; 0 day,0.01
same,Impurity RRT0.67 content,[1]; 0 day,0.01
same,Impurity RRT0.93 content,[1]; 0 day,0.01
same,Impurity RRT1.17 content,[1]; 0 day,0.01
same,Impurity RRT2.25 content,[1]; 0 day,0.01
same,Impurity RRT2.28 content,[1]; 0 day,0.01
same,Number of impurities,[1]; 0 day,6
same,Property (appearance),[1]; 0 day,White
same,Total content of impurities,[1]; 0 day,0.06%
same,Impurity RRT0.57 content,[1]; [3],0.01
same,Impurity RRT0.67 content,[1]; [3],0.01
same,Impurity RRT0.93 content,[1]; [3],0.01
same,Impurity RRT1.17 content,[1]; [3],0.01
same,Impurity RRT2.25 content,[1]; [3],0.01
same,Impurity RRT2.28 content,[1]; [3],0.01
same,Number of impurities,[1]; [3],6
same,Property (appearance),[1]; [3],White
same,Total content of impurities,[1]; [3],0.05%
same,Impurity RRT0.57 content,[1]; [4],0.02
same,Impurity RRT0.73 content,[1]; [4],0.01
same,Impurity RRT0.93 content,[1]; [4],0.01
same,Impurity RRT1.12 content,[1]; [4],0.01
same,Impurity RRT1.17 content,[1]; [4],0.01
same,Impurity RRT2.25 content,[1]; [4],0.01
same,Impurity RRT2.28 content,[1]; [4],0.01
same,Number of impurities,[1]; [4],7
same,Property (appearance),[1]; [4],White
same,Total content of impurities,[1]; [4],0.08%
same,Impurity RRT0.57 content,[1]; [5],0.01
same,Impurity RRT0.67 content,[1]; [5],0.01
same,Impurity RRT0.93 content,[1]; [5],0.02
same,Impurity RRT1.17 content,[1]; [5],0.01
same,Impurity RRT2.25 content,[1]; [5],0.01
same,Impurity RRT2.28 content,[1]; [5],0.01
same,Number of impurities,[1]; [5],6
same,Property (appearance),[1]; [5],White
same,Total content of impurities,[1]; [5],0.07%
same,Weight gained,[1]; high humidity of RH75% for 10 days,about 2.1%
same,Weight lost,[1]; high temperature of 60° C. for 10 days,about 1.0%
same,New impurities detected (number),[1]; light irradiation of 5000LX for 10 days,1
same,Solubility in water,[2],almost insoluble in water
